Results: PMC10374545, “A small molecule inhibitor of PTP1B and PTPN2 enhances T cell anti-tumor immunity” (Nature Communications, 2023)
Several values for one entry are separate records, joined by “and”; a condition that tells them apart may be missing. Equal values may be shown once.

Experiments:
[1] = Serum cytokines (BD Cytokine Bead Array) in AT3-OVA tumor-bearing mice; assay type: in vivo, mouse
Method: Single-cell suspensions from spleens and lymph nodes were obtained as described previously. For the detection of intracellular cytokines and granzyme B, T cells were fixed and permeabilized with the BD Cytofix/Cytoperm kit according to the manufacturer’s instructions. Briefly, T cells were first surface stained with fluorophore-conjugated antibodies and then fixed followed by permeabilization on ice for 20 min. Fixed and permeabilized cells were stained for IFN-γ, TNF, and granzyme B for 45 min at room temperature. For the detection of intracellular FoxP3 the Foxp3/Transcription Factor Staining Buffer Set (eBioscience) was used according to the manufacturer’s instructions. Briefly, cells were fixed and permeabilized for 1 h on ice followed by intracellular staining at room temperature for 45 min. For the detection of serum cytokines, the BD CBA Mouse Inflammation Kit™ was used according to the manufacturers’ instructions.

[2] = Serum anti-nuclear antibodies (ANA) ELISA; assay type: in vivo, mouse
Excerpt: CD3ε (BD Biosciences Cat# 553058) and CD28 (BD Biosciences Cat# 557393) antibodies for T cell stimulation and NK1.1 (BD Biosciences Cat# 564143) antibody for NK cell stimulation were purchased from BD Biosciences. Ly49H (clone 3D10, BioLegend Cat# 144702) antibody for NK stimulation was from BioLegend. For analyzing T cell signaling, p-(Y418) SFK (Thermo Fisher Scientific Cat# 14-9034-82) was from Invitrogen and p-(Y694) STAT-5 (D47E7) XP® (Cell Signaling Technology Cat# 4322) was from Cell Signaling. Recombinant human IL-2, recombinant murine IL-7 and recombinant human IL-15 were purchased from the PeproTech, recombinant mouse IL-12 and recombinant human IL-18 were from Australia Biosearch and […] (N4) from Mimotopes. InVivoMAb anti-mouse PD-1 (Bio X Cell Cat# BE0146) and InVivoMAb rat IgG2a isotype control (Bio X Cell Cat# BE0251) were purchased from Bio X Cell. DNase I was from Sigma-Aldrich. Rabbit monoclonal PTP1B (Abcam Cat# ab244207) antibody for flow cytometry was from Abcam and mouse monoclonal PTPN2 6F3 antibody for immunoblotting and flow cytometry was from MédiMabs (Cat# MM-019-P). Mouse anti-actin (Thermo Fisher Scientific Cat# MA5-11866) from Invitrogen and mouse α-tubulin (Sigma-Aldrich Cat# T5168) was from Merck. The mouse anti-nuclear antibodies Ig’s (total IgA+G + M) ELISA Kit was from Alpha Diagnostic Int. and the Transaminase II Kit from Wako Pure Chemicals. FBS was purchased from Thermo Scientific, RPMI 1640, DMEM, MEM, HEPES, non-essential amino acids, penicillin/streptomycin, and sodium-pyruvate were from Invitrogen, collagenase type IV was purchased from Worthington Biochemical and ABBV-CLS-484 was from MedChemExpress (Cat# HY-145923).

[3] = test system: AT3-OVA mammary tumors; test: AT3-OVA mammary tumor growth in C57BL/6 mice; assay type: in vivo, mouse; parameters: Tumour weights, individual mice: unit not given here; conditions: for Tumour growth, individual mice: Figure 5A; for Tumour growth, single mice: sizes in mm^2, Fig. 3A, listed as CMP-182, 10 mg/kg
Method: Male or female mice were injected subcutaneously with 5 × 10^5 MC38 tumor cells resuspended in 100 μl D-PBS into the flank. Alternatively, female mice were injected orthotopically with 5 × 10^5 AT3 or AT3-OVA or PTPN2-deleted AT3 or AT3-OVA tumor cells resuspended in 20 μl D-PBS into the fourth mammary fat pad. Tumor sizes were measured in two dimensions (mm^2) using electronic callipers two to three times per week as soon as tumors were palpable (20–25 mm^2).

[4] = test system: OT-I CD8+ T cells; test: T cell proliferation (CTV dilution); assay type: cell-based, mouse; parameters: CTV, single replicates / CTV, mean of differences (D - C): unit not given here; conditions: for CTV, single replicates: N4 0.5 nM, 1 μM, 3 days, Fig. 2C raw data
Method: For analyzing cellular proliferation in vitro, single-cell suspensions from lymph nodes of wild type (OT-I;Ptpn2^fl/fl) or PTPN2-deficient (OT-I;Lck-Cre;Ptpn2^fl/fl) mice were stained with 2 μM CellTrace^TM Violet (CTV; Molecular Probes, Thermo Fisher Scientific) in PBS supplemented with 0.1% (v/v) FBS for 20 min at 37 °C. […] On day 3, OT-I cells were harvested and CTV dilution was monitored by flow cytometry. For cell number quantification, known numbers of Flow-Count Fluorospheres (Beckman Coulter) were added to samples before analysis.

[5] = test system: NK cells; test: NK cell activation (IFN-γ+, CD107A+) by cytokines or α-NK1.1/α-Ly49H; assay type: cell-based, mouse; conditions: cytokines or crosslinking NK1.1, Ly49H
Method: proliferation in vitro. a-b) NK cells from C57BL/6 male mice (n=3 per group) were expanded […]
µg/ml) or vehicle (1% v/v DMSO) in the absence of IL-15. a) NK cells were re-stimulated for 15 min with the indicated amounts of IL-15 and Y694 phosphorylated STAT-5 (p-STAT-5) mean fluorescence intensities (MFIs) determined by flow cytometry. b) Alternatively, NK cells were stained with carboxyfluorescein succinimidyl ester (CFSE, Invitrogen) and then re-stimulated with the indicated amounts of IL-15 for 96 h and NK cell proliferation (CFSE dilution) monitored by flow cytometry. c-d) NK cells from C57BL/6 male mice (n=3 per group) were expanded ex vivo in the presence of IL-15 and then pre-treated with CMP-182 (0.1 or 1 µg/ml) or vehicle in the absence of IL-15. NK cells were re-stimulated with either IL-12 (10 ng/ml) or IL-18 (100 ng/ml) or with α-NK1.1 or α-Ly49H for 4 h. NK cells were maintained in 10 ng/ml IL-15 throughout the 4 h incubation time. Percentages of c) IFN-γ+ and d) CD107A+ NK cells were determined by flow cytometry. In (a-d) results shown are means ± SEM and are representative of at least two independent experiments.

[6] = Figure 10A, serum, individual mice, listed as CMP-182, in pg/mL (unit assumed)

Q: Which “serum levels of pro-inflammatory cytokines IL-6, IFNγ and TNF” value ([1]; 10 mg/kg i.v.) does the source give for `CC(C)(O)CCOc1ccc2cc(O)c(N3CC(=O)NS3(=O)=O)c(F)c2c1` [Compound 182, 5-(1-Fluoro-3-hydroxy-7-(3-hydroxy-3-methylbutoxy)naphthalen-2-yl)−1,2,5-thiadiazolidin-3-one 1,1-dioxide] here?
A: not significantly increased

Q: And the “Serum IFNg 2nd cohort, median” value ([1]; Figure 10A, median, n=8)?
A: 10.56, n=8

Q: What about the “Serum IL-6 2nd cohort, median” value ([1]; Figure 10A, median, n=8) of the same compound?
A: 8.881, n=8

Q: What about the “Serum TNF 2nd cohort, median” value ([1]; Figure 10A, median, n=8) of the same compound?
A: 15.88, n=8

Q: And the IFN g [1, 6]?
A: 8.688 and 8.172 and 5.3329 and 65.9781 and 16.5587 and 24.0426 and 12.4297 and 4.946

Q: What about the IL-6 [1, 6] of the same compound?
A: 14.2361 and 23.6555 and 10.1071 and 7.655 and 5.591 and 5.72 and 7.01 and 68.8168

Q: And the TNF [1, 6]?
A: 7.107 and 11.4953 and 23.094 and 50.0533 and 23.4075 and 14.0031 and 17.7649 and 12.4357

Q: What about the “serum anti-nuclear antibodies (ANA)” value ([2]; 10 mg/kg i.v.) of the same compound?
A: unaltered

Q: And the “Serum ANA” value ([2]; Figure 10C, individual mice, listed as CMP-182)?
A: 77.3077 and 275 and 43.4615 and 42.6923 and 47.3077 and 142.692 and 64.2308

Q: And the “ANA Serum, median” value ([2]; Figure 10C, median, n=8)?
A: 70.77, n=8

Q: What about the “repression of tumor growth, dosing every two days compared with every three days” value ([3]; 10 mg/kg i.v.) of the same compound?
A: more pronounced

Q: What about the “AT3-OVA tumor growth, administration every three days” value ([3]; 10 mg/kg i.v., days 9-27, Supplementary Fig. 8) of the same compound?
A: represses

Q: What about the “growth of AT3-OVA mammary tumors” value ([3]; 10 mg/kg intravenously every 2 days or every 3 days) of the same compound?
A: effectively repressed the growth

Q: What about the “Tumour weight d21 (median)” value ([3]; AT-3-OVA, Figure 3A, column B, n=8) of the same compound?
A: 100.0, n=8

Q: And the “Tumour weights, individual mice” value ([3]; C57BL/6, CMP-182 10 mg, n=8, Figure 5B)?
A: 126 and 340 and 344 and 76 and 85 and 190 and 183 and 281

Q: What about the “Tumour growth, individual mice” value ([3]; C57BL/6, CMP-182 10 mg, n=8, day 0 post injection, in mm2) of the same compound?
A: 38.86 and 38.76 and 36.96 and 20 and 19.89 and 39.65 and 32.33 and 44.53

Q: And the “Tumour growth, individual mice” value ([3]; C57BL/6, CMP-182 10 mg, n=8, day 2 post injection, in mm2)?
A: 46.62 and 45 and 45.75 and 21.2 and 22.26 and 46.15 and 36.4 and 52

Q: What about the “Tumour growth, individual mice” value ([3]; C57BL/6, CMP-182 10 mg, n=8, day 4 post injection, in mm2) of the same compound?
A: 40.6 and 37.95 and 45.6 and 22.4 and 21.42 and 37.21 and 29.5 and 55.61

Q: And the “Tumour growth, individual mice” value ([3]; C57BL/6, CMP-182 10 mg, n=8, day 7 post injection, in mm2)?
A: 35.1 and 40.02 and 49.4 and 25.2 and 27.54 and 44.85 and 32.5 and 53.6

Q: What about the “Tumour growth, individual mice” value ([3]; C57BL/6, CMP-182 10 mg, n=8, day 9 post injection, in mm2) of the same compound?
A: 40.2 and 41.76 and 56.44 and 28.35 and 33.04 and 52.56 and 37.95 and 65.25

Q: And the “Tumour growth, individual mice” value ([3]; C57BL/6, CMP-182 10 mg, n=8, day 12 post injection, in mm2)?
A: 40.8 and 47.74 and 66.43 and 30.15 and 33.63 and 55.5 and 42 and 70.2

Q: And the “Tumour growth, individual mice” value ([3]; C57BL/6, CMP-182 10 mg, n=8, day 15 post injection, in mm2)?
A: 42 and 55.44 and 75.75 and 31.5 and 34.22 and 60.84 and 45.26 and 76

Q: What about the “Tumour size AT-3-OVA (group mean)” value ([3]; C57BL/6 n=8, time point 6, in mm2) of the same compound?
A: 21.8

Q: What about the “Tumour size AT-3-OVA (group mean)” value ([3]; C57BL/6 n=8, time point 8, in mm2) of the same compound?
A: 21.97

Q: What about the “Tumour size AT-3-OVA (group mean)” value ([3]; C57BL/6 n=8, time point 10, in mm2) of the same compound?
A: 23.3

Q: What about the “Tumour size AT-3-OVA (group mean)” value ([3]; C57BL/6 n=8, time point 13, in mm2) of the same compound?
A: 25.76

Q: What about the “Tumour size AT-3-OVA (group mean)” value ([3]; C57BL/6 n=8, time point 15, in mm2) of the same compound?
A: 29.09

Q: What about the “Tumour size AT-3-OVA (group mean)” value ([3]; C57BL/6 n=8, time point 17, in mm2) of the same compound?
A: 31.79

Q: What about the “Tumour size AT-3-OVA (group mean)” value ([3]; C57BL/6 n=8, time point 19, in mm2) of the same compound?
A: 33.9

Q: And the “Tumour size AT-3-OVA (group mean)” value ([3]; C57BL/6 n=8, time point 21, in mm2)?
A: 36.99

Q: What about the “Tumour size AT-3-OVA (group mean)” value ([3]; C57BL/6 n=8, time point 23, in mm2) of the same compound?
A: 41.18

Q: And the “Tumour size AT-3-OVA, mean over all time points” value ([3]; C57BL/6 n=8, two-way RM ANOVA column mean, in mm2)?
A: 29.53

Q: What about the “Tumour growth, single mice” value ([3]; day 6 post injection (first dose), 10 mg/kg i.v., in mm2) of the same compound?
A: 22.54 and 20.7 and 19.36 and 20.25 and 18.49 and 22.09 and 26.95 and 24

Q: And the “Tumour growth, single mice” value ([3]; day 8 post injection, 10 mg/kg i.v., in mm2)?
A: 22.08 and 20.7 and 20.68 and 20.91 and 19.78 and 21.15 and 25.97 and 24.48

Q: What about the “Tumour growth, single mice” value ([3]; day 10 post injection, 10 mg/kg i.v., in mm2) of the same compound?
A: 27.56 and 22.95 and 17.6 and 23.1 and 20.64 and 23.04 and 23.65 and 27.84

Q: What about the “Tumour growth, single mice” value ([3]; day 15 post injection, 10 mg/kg i.v., in mm2) of the same compound?
A: 37.95 and 25.76 and 21.12 and 24.36 and 20.64 and 28.62 and 35.75 and 38.5

Q: And the “Tumour growth, single mice” value ([3]; day 23 post injection, 10 mg/kg i.v., in mm2)?
A: 43.55 and 30 and 34.02 and 32.76 and 29.15 and 54.51 and 48.18 and 57.27

Q: And the “OT-I CD8+ T cell proliferation/expansion (CTV dilution)” value [4]?
A: marked increases

Q: What about the “CTV, mean of differences (D - C)” value ([4]; 2KI vs. 2K, day 3, 4 pairs, Fig. 2C) of the same compound?
A: 23.93

Q: And the “CTV, single replicates” value ([4]; Lck-Cre;Ptpn2fl/fl (2K) OT-I cells, listed as 2KI)?
A: 82.8 and 89.7 and 89.6 and 74.7

Q: What about the “CTV, mean of differences (B - A)” value ([4]; WTI vs. WT, day 3, 4 pairs, Fig. 2C) of the same compound?
A: 27.74

Q: And the “CTV, single replicates” value ([4]; wild type OT-I cells, listed as WTI)?
A: 38.7 and 58 and 84.3 and 62.7

Q: What about the “NK cell activation (IFNγ or CD107A expressing cells)” value [5] of the same compound?
A: nor did it affect
